Measured values: patent US20090008238A1, “TRANSPORTABLE GAS STERILIZATION UNIT, DISPOSABLE GAS GENERATOR, LIGHT ACTIVATED ANTI-INFECTIVE COATING AND METHOD OF DISINFECTION AND STERILIZATION USING CHLORINE DIOXIDE” (THE ARIZONA BD OF REG ON BEHALF OF THE UNIV OF AZ, priority 2004, published 2009)
“And” between values parts separate entries of the source, which are not always exact repeats. Equal values may be shown once.

Key:
A. niger = conditions: 2.5 minute exposure; cited from earlier work
MRSA = conditions: 2.5 minute exposure; cited from earlier work
B. subtilis (spore) = conditions: 2.5 minute exposure; cited from earlier work
E. coli = conditions: 2.5 minute exposure; cited from earlier work
S. aureus = conditions: 2.5 minute exposure; cited from earlier work
[1] = drank solution, up to a concentration of 24 ppm; cited from earlier work
[2] = low concentrations (20 mg/L) of gas; cited from earlier work
red blood cell = conditions: cited from earlier work
[3] = relative to hypochlorite; cited from earlier work
Simian, Rotavirus SA11 = conditions: pH 10; cited from earlier work
[4] = concentrations up to 100 ppm, in drinking, as well as via the skin route; cited from earlier work
[5] = system: Bacillus subtilis var. niger spores; experiment: sporicidal effects of gas phase ClO2 on inoculated washers; format: cell-based; design: key to Sterility (Day 14): Yes indicates no turbidity was observed, sample is sterile.; No indicates turbidity observed, sample is not sterile; conditions: 4 hours; for Log Reduction: versus average of 2D and 2E
Description: Sterile washers were inoculated with 1.4×10^7 Bacillus subtilis var. niger spores and allowed to dry overnight. Solutions were prepared in sterile jars to obtain different chlorine dioxide levels. Five washers were suspended in each jar and exposed to one chlorine dioxide concentration for 4 hours in the dark. Two washers from each chlorine dioxide level were enumerated for log reduction and three washers from each chlorine dioxide concentration were analyzed for sterility. Log reduction samples were analyzed by placing one washer into 10 ml sterile Difco DE Neutralizing Broth, shaking for approximately 30 seconds and spread plating, in duplicate, onto Difco Trypticase Soy agar plates incubated at 35° C. for 48 hours. Sterility was determined by placing one washer in 50 ml sterile Difco Trypticase Soy Broth incubated at 35° C. for 14 days and visually checked daily for turbidity. Appropriate positive and negative controls were run with test samples.

## N=C(NCCCCCCNC(=N)NC(=N)Nc1ccc(Cl)cc1)NC(=N)Nc1ccc(Cl)cc1.O=C(O)[C@H](O)[C@@H](O)[C@H](O)[C@H](O)CO.O=C(O)[C@H](O)[C@@H](O)[C@H](O)[C@H](O)CO [CHG, Chlorhexidine digluconate]
A. niger
  minimum bactericidal concentration, A. niger: >10,000 ppm
MRSA
  minimum bactericidal concentration, MRSA: 1,000 ppm
B. subtilis (spore)
  minimum bactericidal concentration, B. subtilis (spore): 1,000 ppm
E. coli
  minimum bactericidal concentration, E. coli: 100 ppm
S. aureus
  minimum bactericidal concentration, S. aureus: 10 ppm

## [O][Cl+][O-] [Chlorine Dioxide]
A. niger
  minimum bactericidal concentration, A. niger: 10 ppm
MRSA
  minimum bactericidal concentration, MRSA: 1 ppm
[1]
  adverse effects in human volunteers: no adverse effects
B. subtilis (spore)
  minimum bactericidal concentration, B. subtilis (spore): 100 ppm
E. coli
  minimum bactericidal concentration, E. coli: 1 ppm
[2]
  sterilant effectiveness: effective sterilant
S. aureus
  minimum bactericidal concentration, S. aureus: 1 ppm
Red blood cell; rats fed up to 1000 mg/l chronically for 6 months
  hematological changes: no significant hematological changes
Red blood cell; rats, after 9 months, all treatment groups
  red blood cell counts, hematocrit and hemoglobin: decreased
[3]
  half-life for the elimination from the plasma: less than half that of hypochlorite
Simian, Rotavirus SA11
  time to good antiviral activity: less than 15 seconds
[4]
  fetal malformation or birth defects: no evidence of fetal malformation or birth defects
[5]; 50 ppm gas phase
  CFU/ml Recovered Bacillus subtilis var. niger: 50,000 CFU/ml and 73,000 CFU/ml
  Sterility (Day 14): No
  Log Reduction: 2.30 and 2.13
[5]; 100 ppm gas phase
  Sterility (Day 14): Yes
  Log Reduction: > 6
[5]; 200 ppm gas phase
  CFU/ml Recovered Bacillus subtilis var. niger: <1 CFU/ml
  Sterility (Day 14): Yes
  Log Reduction: >6.99
[5]; 300 ppm gas phase
  CFU/ml Recovered Bacillus subtilis var. niger: <1 CFU/ml
  Sterility (Day 14): Yes
  Log Reduction: >6.99
[5]; 400 ppm gas phase
  CFU/ml Recovered Bacillus subtilis var. niger: <1 CFU/ml
  Sterility (Day 14): Yes
  Log Reduction: >6.99

## CCO [EtOH, Absolute Ethyl Alcohol]
A. niger
  minimum bactericidal concentration, A. niger: 500,000 ppm
MRSA
  minimum bactericidal concentration, MRSA: 500,000 ppm
B. subtilis (spore)
  minimum bactericidal concentration, B. subtilis (spore): 500,000 ppm
E. coli
  minimum bactericidal concentration, E. coli: 500,000 ppm
S. aureus
  minimum bactericidal concentration, S. aureus: 500,000 ppm

## O=CCCCC=O [GA, Glutaraldehyde]
A. niger
  minimum bactericidal concentration, A. niger: 100,000 ppm
MRSA
  minimum bactericidal concentration, MRSA: 100,000 ppm
B. subtilis (spore)
  minimum bactericidal concentration, B. subtilis (spore): 100,000 ppm
E. coli
  minimum bactericidal concentration, E. coli: 100,000 ppm
S. aureus
  minimum bactericidal concentration, S. aureus: 100,000 ppm

## Oc1ccccc1 [PN, Phenol]
A. niger
  minimum bactericidal concentration, A. niger: >10,000 ppm
MRSA
  minimum bactericidal concentration, MRSA: >10,000 ppm
B. subtilis (spore)
  minimum bactericidal concentration, B. subtilis (spore): >10,000 ppm
E. coli
  minimum bactericidal concentration, E. coli: 10,000 ppm
S. aureus
  minimum bactericidal concentration, S. aureus: >10,000 ppm

## OCl [SH, Sodium hypochlorite]
A. niger
  minimum bactericidal concentration, A. niger: 1,000 ppm
MRSA
  minimum bactericidal concentration, MRSA: 10 ppm
B. subtilis (spore)
  minimum bactericidal concentration, B. subtilis (spore): >1,000 ppm
E. coli
  minimum bactericidal concentration, E. coli: 10 ppm
S. aureus
  minimum bactericidal concentration, S. aureus: 10 ppm

## [O-][Cl+]O [chlorite ions]
[1]
  adverse effects in human volunteers: no adverse effects
[3]
  half-life for the elimination from the plasma: less than half that of hypochlorite

## Benzalkonium chloride [BAC]
A. niger
  minimum bactericidal concentration, A. niger: 10,000 ppm
MRSA
  minimum bactericidal concentration, MRSA: 100 ppm
B. subtilis (spore)
  minimum bactericidal concentration, B. subtilis (spore): 1,000 ppm
E. coli
  minimum bactericidal concentration, E. coli: 100 ppm
S. aureus
  minimum bactericidal concentration, S. aureus: 10 ppm

## Providone iodine [PVP-I]
A. niger
  minimum bactericidal concentration, A. niger: 1,000 ppm
MRSA
  minimum bactericidal concentration, MRSA: 100 ppm
B. subtilis (spore)
  minimum bactericidal concentration, B. subtilis (spore): >1,000 ppm
E. coli
  minimum bactericidal concentration, E. coli: 10 ppm
S. aureus
  minimum bactericidal concentration, S. aureus: 100 ppm
